Data on twelve molecules can be found in US20100143346A1, “Treatment of Macular Degeneration” (priority 2006, published 2010).

The subject of data set [1] is gut vessel plexus. The experiment in a line: Zebrafish angiogenesis assay: scoring of the gut vessel plexus in transgenic GFP fish. Type of data set: in vivo, Zebrafish (Danio rerio). Also noted: Inhibition of gut vessel formation: scale not given here. The conditions noted are these: for Inhibition of gut vessel formation: transgenic GFP fish incubated 24 h.p.f. to 5 d.p.f., gut vessel plexus scored by microscopy; for concentrations showing concentration-dependent inhibition of vessels: gut vessels. The text has this: Zebrafish (Danio rerio) are ideal organisms for the investigation of blood vessel growth because they are transparent in the embryonic and larval stages of development so that blood vessels marked with a fluorescent marker can clearly be seen in vivo in the live animal. Zebrafish blood vessel development is well characterised and vessels can be visualised by microangiography or by expressing green fluorescent protein in blood vessels (Isogai et al. (2001) Dev Biol 230(2): 278-301; Covassin et al. (2006) Proc Natl Acad Sci USA 103(17): 6554-9). Zebrafish are also ideal vertebrate organisms in which to screen for active small molecules because the larvae can be treated with compound simply by immersion of the fish in compound solution in wells of a standard multi-well plate (12, 24 or 96-wells).
Expression of the zebrafish PR can be detected as early as 48 hours post fertilisation and an assay was therefore developed to investigate the effects of compounds on blood vessel formation in zebrafish after this time. Previous studies on inhibition of blood vessel growth have focussed on formation of intersegmental vessels (Serbedzija et al. (1999) Angiogenesis 3(4): 353-9; Parng at al. (2002) Assay Drug Dev Technol 1(1 Pt 1): 41-8) but these particular vessels are specified and begin to form prior to the time when the PR is expressed in the zebrafish embryo. Accordingly, later-developing vessels around the gut, the vascular plexus of the mid gut which branches from the subintestinal vein and supraintestinal artery, were monitored.
A similar method was developed for screening of compounds using a line of fish that express GFP under control of an enhancer that drives expression in blood vessels, spinal cord and eyes. The fish are a cross between the et19.1 enhancer:Gal4 line (Scott et al. (2007) Nat Methods 4(4): 323-6) and a UAS:GFP line made in-house in a TL zebrafish background. Transgenic zebrafish embryos or larvae expressing GFP in the blood vessel walls were treated with test compounds by immersion in aqueous medium containing the compound at the required concentration, for a period of one or more days. At the end of the incubation period the fish were immobilised on their sides and the organisation and structure of the vasculature was visualised by fluorescent microscopy, which is possible because of the transparency of zebrafish larvae. The vessels can be identified by comparison with the online Interactive Atlas of Zebrafish Vascular Anatomy (Isogai et al. (2001) Dev Biol 230(2): 278-301).
Vessels such as the dorsal aorta, posterior cardinal vein, caudal artery, caudal vein, intersegmental vessels, dorsal longitudinal anastomotic vessels and the gut vessel plexus were assessed in each fish and compared to the control group. […] A subjective score was given to the fore/mid gut vessel plexus (by assessment of the number of visible vessels and extent of spread of the plexus), ranging from “3” for a normal extensively vascularised gut, to “0” for a complete absence of any branching of vessels around the gut. The intestinal vessel plexus forms between 3 and 5 days post fertilisation (d.p.f.) and so these assays were usually scored at 5 d.p.f. The vessels could also be quantified by digital photography and quantification of fluorescence levels or number of vessels in the region of interest.
Assays using Tg 043/050 uas:GFP+/−enhancer:gal4+/−×TL (“panretinal” enhancer) fish, incubated with various compounds (see Table below) from 24 h.p.f. to 5 d.p.f. (unless otherwise stated), then scoring the extent of the gut vessel plexus by microscopy. A score of 3 represents a good, fully formed gut vessel plexus, with 20 or more branched vessels; 2 represents as slightly less well formed plexus with 10-19 vessels; 1 represents a poorly formed plexus with 1-9 vessels; 0 represents a complete absence of visible gut vessels. Each of the compounds was tested in a 24 hour MTC assay in the TL strain of wild type fish (24-48 h.p.f.). […]

The subject of data set [2] is TL strain of wild type fish. As to the kind of experiment: 24 hour MTC assay in the TL strain of wild type fish. Type of data set: in vivo, Zebrafish (Danio rerio). The conditions noted are these: 24-48 h.p.f. The procedure:
Assays using Tg 043/050 uas:GFP+/−enhancer:gal4+/−×TL (“panretinal” enhancer) fish, incubated with various compounds (see Table below) from 24 h.p.f. to 5 d.p.f. (unless otherwise stated), then scoring the extent of the gut vessel plexus by microscopy. A score of 3 represents a good, fully formed gut vessel plexus, with 20 or more branched vessels; 2 represents as slightly less well formed plexus with 10-19 vessels; 1 represents a poorly formed plexus with 1-9 vessels; 0 represents a complete absence of visible gut vessels. Each of the compounds was tested in a 24 hour MTC assay in the TL strain of wild type fish (24-48 h.p.f.). The MTC from this assay was used as the highest concentration for assays in the transgenic fish, with half-log intervals.

For data set [3] the following is noted: cited from earlier work.

With `COC[C@]1(OC)CC[C@H]2[C@@H]3CCC4=CC(=O)CCC4=C3[C@@H](c3ccc(/C=N/O)cc3)C[C@@]21C` [Asoprisnil], in data set [1], the “Inhibition of gut vessel formation” value is on record as “+”. The MTC in data set [2] came to 10 µM.
Turning to `CC1=CC(C)(C)Nc2ccc(-c3cccc(C#N)c3)cc21` [LG120753], in data set [1], the “concentrations showing concentration-dependent inhibition of vessels” value was 0.3 to 3 µM and the “Inhibition of gut vessel formation” value is “+”. In addition, the MTC in data set [2] stood at 3 µM.
Regarding `CC1=CC(C)(C)Nc2ccc(-c3csc(C#N)c3)cc21` [LG121046], the “Inhibition of gut vessel formation” value in data set [1] is given as “++”. Besides, the MTC in data set [2] was in the range of 3 to 10 µM.
Turning to `CC#C[C@]1(O)CC[C@H]2[C@@H]3CCC4=CC(=O)CCC4=C3[C@@H](c3ccc(N(C)C)cc3)C[C@@]21C` [RU486, 17beta-hydroxy-11-beta-(4-dimethylaminophenyl)-17alpha-(prop-1-ynyl)-estra-4,9-dien-3-one], in data set [1], the “inhibition of gut vessel formation (in words)” value is on record as “dose-dependent” and the “Inhibition of gut vessel formation” value was “+++”. Further, the “rescue of vessel inhibition by progesterone” value in data set [1] (10 μM of each (RU486 and progesterone)) was “rescued by progesterone”. This molecule also showed an MTC in data set [2] of 10 to 30 µM. In data set [3] (after oral dosing), the plasma half life is 20 to 30 h and the “time to peak plasma levels” value is 1 to 2 h. Besides, the oral bioavailability in data set [3] (oral) was 40-70%.
`CC#CC1(O)CCC2C3CCC4=CC(=O)CCC4=C3C(c3ccc(NC)cc3)CC21C` (centres unmarked) [RU42633]: the “concentration of best inhibition of gut vessels” value in data set [1] (concentration response curves, 1-5 dpf) is 30 µM. For the same molecule, in data set [1], the “Inhibition of gut vessel formation” value is “+++”. Further, in data set [2], the MTC came to 30 µM.
`CN(C)c1ccc(C2CC3(C)C(CCC3(O)C#CCO)C3CCC4=CC(=O)CCC4=C23)cc1` (centres unmarked) [RU42698]: in data set [1], the “concentrations showing concentration-dependent inhibition of vessels” value fell in the range of 30 to 100 µM and the “Inhibition of gut vessel formation” value is given as “++”. Moreover, the MTC in data set [2] came out at 100 µM.
As for `CC#CC1(O)CCC2C3CCC4=CC(=O)CCC4=C3C(c3ccc(N)cc3)CC21C` (centres unmarked) [RU42848], in data set [1], the “Inhibition of gut vessel formation” value was “+”. For the same molecule, the MTC in data set [2] turned out to be 100 µM.
Regarding `Cc1cc(C)c(/C=C2\C(=O)Nc3ccccc32)[nH]1` [SU5416], the “inhibition of gut vessel formation (in words)” value in data set [1] is reported as “vessel formation was inhibited”.
For the molecule `CC1(C)OC(=O)Nc2ccc(-c3cc(F)cc(Cl)c3)cc21` [Wyeth 4g], in data set [1], the “Inhibition of gut vessel formation” value is reported as “++”. The molecule also came in with an MTC in data set [2] of 3 µM.
As to `CC1(C)OC(=O)Nc2ccc(-c3cc(F)cc(C#N)c3)cc21` [Wyeth 4h], in data set [1] (data not shown), the “concentration of maximal inhibition of gut vessels” value worked out at 30 µM. Moreover, the “Inhibition of gut vessel formation” value in data set [1] is reported as “++”. The molecule further had an MTC in data set [2] of 30 µM.
In the case of `CC1(C)OC(=O)Nc2ccc(-c3ccc(F)c(Cl)c3)cc21` [Wyeth 4j], the “Inhibition of gut vessel formation” value in data set [1] is given as “+”. For the same molecule, the MTC in data set [2] lay within 1 to 3 µM.
With `CC1(C)OC(=O)Nc2ccc(-c3ccc(F)c(C#N)c3)cc21` [Wyeth 6], the “Inhibition of gut vessel formation” value in data set [1] is reported as “+”. Besides, the MTC in data set [2] turned out to be 100 µM.
